# How the values were obtained:
# Assay in all cases: relative viability (nuclei count vs DMSO), 5 days (fraction); higher = more cells survive
# RU-SKI 43 + Phenformin = compound: CC[C@@H](C)CNCC(=O)N1CCC2=C([C@@H]1COC3=CC=CC(=C3)C)C=CS2 [RU-SKI 43] + N=C(N)NC(=N)NCCc1ccccc1 [Phenformin] (partner 250 µM)
# Procedure, shortened: (§1)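 Relative viability is defined as nuclei in treated wells over nuclei in vehicle wells. Duplicate plates were run and medians reported. Lung cancer cell lines in 1536-well plates were dosed by pin tool one day after seeding, with one drug or with a fixed anchor-drug dose plus five library-drug doses (not always all listed) in √10 steps, and nuclei were counted after 5 days.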
# RU-SKI 43 + OSI-027 = compound: CC[C@@H](C)CNCC(=O)N1CCC2=C([C@@H]1COC3=CC=CC(=C3)C)C=CS2 [RU-SKI 43] + COc1cccc2cc(-c3nc([C@H]4CC[C@H](C(=O)O)CC4)n4ncnc(N)c34)[nH]c12 [OSI-027] (partner 0.5 µM)
# Procedure, shortened: as §1
# Irinotecan + Bortezomib = compound: CCc1c2c(nc3ccc(OC(=O)N4CCC(N5CCCCC5)CC4)cc13)-c1cc3c(c(=O)n1C2)COC(=O)[C@]3(O)CC [Irinotecan] + CC(C)C[C@H](NC(=O)[C@H](Cc1ccccc1)NC(=O)c1cnccn1)B(O)O [Bortezomib] (partner 0.002 µM)
# Procedure, shortened: as §1
# MK-8033 + Bortezomib = compound: Cn1cc(-c2cnc3ccc4ccc(CS(=O)(=O)NCc5ccccn5)cc4c(=O)c3c2)cn1 [MK-8033] + CC(C)C[C@H](NC(=O)[C@H](Cc1ccccc1)NC(=O)c1cnccn1)B(O)O [Bortezomib] (partner 0.002 µM)
# Procedure, shortened: as §1
Cell Line,relative viability (RU-SKI 43 + Phenformin; first compound 0.1 µM),relative viability (RU-SKI 43 + Phenformin; first compound 0.3162 µM),relative viability (RU-SKI 43 + Phenformin; first compound 1 µM),relative viability (RU-SKI 43 + Phenformin; first compound 3.162 µM),relative viability (RU-SKI 43 + Phenformin; first compound 10 µM),relative viability (RU-SKI 43 + OSI-027; first compound 0.1 µM),relative viability (RU-SKI 43 + OSI-027; first compound 0.3162 µM),relative viability (RU-SKI 43 + OSI-027; first compound 1 µM),relative viability (RU-SKI 43 + OSI-027; first compound 3.162 µM),relative viability (RU-SKI 43 + OSI-027; first compound 10 µM),relative viability (Irinotecan + Bortezomib; first compound 0.6325 µM),relative viability (Irinotecan + Bortezomib; first compound 2 µM),relative viability (Irinotecan + Bortezomib; first compound 6.325 µM),relative viability (Irinotecan + Bortezomib; first compound 20 µM),relative viability (MK-8033 + Bortezomib; first compound 0.02 µM),relative viability (MK-8033 + Bortezomib; first compound 0.06325 µM),relative viability (MK-8033 + Bortezomib; first compound 0.2 µM),relative viability (MK-8033 + Bortezomib; first compound 0.6325 µM),relative viability (MK-8033 + Bortezomib; first compound 2 µM)
COR-L 105,0.486,0.519,0.555,0.439,0.515,0.672,0.817,0.708,0.677,0.665,0.676,0.798,0.627,0.291,0.852,0.735,0.79,0.945,0.93
ChaGo-K-1,0.474,0.491,0.548,0.479,0.488,0.658,0.632,0.646,0.579,0.744,–,1.05,0.46,0.379,1.37,0.756,0.98,1.02,0.926
EKVX,0.221,0.197,0.261,0.235,0.193,0.412,0.67,0.725,0.813,0.466,1.08,0.772,0.394,0.193,1,0.995,0.968,0.712,1.03
EMC-BAC-2,0.535,0.429,0.551,0.482,0.507,0.336,0.32,0.365,0.378,0.361,0.952,0.717,0.242,0.218,1,0.947,0.979,1.06,1.06
EPLC-272H,0.294,0.242,0.323,0.213,0.266,0.32,0.222,0.278,0.326,0.282,0.744,0.635,0.317,0.217,0.932,–,0.826,1.09,0.91
H3255,0.395,0.348,0.26,0.316,0.322,0.543,0.598,0.582,0.607,0.584,0.432,0.529,0.299,0.392,0.846,0.585,0.822,0.825,0.705
HARA,0.531,0.471,0.491,0.457,0.408,0.558,0.492,0.578,0.594,0.295,0.955,0.291,0.177,0.156,1.07,1.1,1.13,1.17,1.07
HCC-15,0.49,0.53,0.55,0.511,0.521,0.733,0.805,0.75,0.803,0.625,0.603,0.623,0.374,0.176,1.04,1.01,0.99,1.05,0.952
HCC-44,0.247,0.261,0.409,0.18,0.277,0.511,–,0.777,0.479,0.611,0.74,0.752,0.229,0.351,0.9,0.838,0.803,0.907,0.833
HCC-78,0.735,0.735,0.933,0.739,0.692,0.392,0.392,0.406,0.386,0.419,0.404,0.393,0.242,0.257,0.446,0.38,0.47,0.478,0.557
HCC-366,0.616,0.676,0.652,0.582,0.453,0.962,0.94,1.02,0.931,0.452,0.731,0.361,0.0441,0.0691,1.07,1,0.96,1.18,1.05
HCC-827,0.421,0.422,0.372,0.46,0.359,0.73,0.94,0.889,0.783,0.736,1.03,0.923,0.639,0.416,1.06,1.01,1.05,1.08,1.04
HOP-62,0.688,0.547,0.779,0.789,0.714,0.912,1.02,1.1,0.915,0.928,0.642,0.2,0.112,0.179,0.932,0.85,0.333,0.555,0.897
LC-2-ad,0.578,0.628,0.637,0.527,0.558,0.733,0.821,1.04,0.979,0.789,0.688,0.286,0.167,0.128,1.12,0.996,0.885,0.996,0.933
LCLC-97TM1,0.463,0.471,0.422,0.43,0.384,0.486,0.551,0.627,0.496,0.485,0.41,0.387,0.148,0.176,1.14,0.616,0.597,0.654,0.499
LCLC-103H,0.318,0.388,0.435,0.346,0.343,0.512,0.576,0.567,0.486,0.56,0.813,0.76,0.518,0.557,1.04,0.986,1.18,1.02,1.12
LOU-NH91,0.705,0.673,0.733,0.715,0.666,0.752,0.642,0.74,0.774,0.728,0.486,0.442,0.359,0.413,0.455,0.559,0.511,0.554,0.495

Cell Line,relative viability (RU-SKI 43 + Phenformin; first compound 0.1 µM),relative viability (RU-SKI 43 + Phenformin; first compound 0.3162 µM),relative viability (RU-SKI 43 + Phenformin; first compound 1 µM),relative viability (RU-SKI 43 + Phenformin; first compound 3.162 µM),relative viability (RU-SKI 43 + Phenformin; first compound 10 µM),relative viability (RU-SKI 43 + OSI-027; first compound 0.1 µM),relative viability (RU-SKI 43 + OSI-027; first compound 0.3162 µM),relative viability (RU-SKI 43 + OSI-027; first compound 1 µM),relative viability (RU-SKI 43 + OSI-027; first compound 3.162 µM),relative viability (RU-SKI 43 + OSI-027; first compound 10 µM),relative viability (Irinotecan + Bortezomib; first compound 0.6325 µM),relative viability (Irinotecan + Bortezomib; first compound 2 µM),relative viability (Irinotecan + Bortezomib; first compound 6.325 µM),relative viability (Irinotecan + Bortezomib; first compound 20 µM),relative viability (MK-8033 + Bortezomib; first compound 0.02 µM),relative viability (MK-8033 + Bortezomib; first compound 0.06325 µM),relative viability (MK-8033 + Bortezomib; first compound 0.2 µM),relative viability (MK-8033 + Bortezomib; first compound 0.6325 µM),relative viability (MK-8033 + Bortezomib; first compound 2 µM)
LU99A,0.862,0.955,0.863,0.871,0.654,0.298,0.282,0.314,0.309,0.317,0.42,0.326,0.18,0.249,1.32,1.09,1.09,1.13,1.12
LXF-289,0.53,0.551,0.574,0.548,0.514,0.776,0.874,0.951,0.827,0.733,0.896,0.987,0.263,0.205,0.989,0.964,0.985,0.999,0.978
NCI-H23,0.772,0.849,0.836,0.857,0.698,0.659,0.523,0.782,0.709,0.5,0.941,0.664,0.291,0.306,0.959,0.712,0.796,1.03,1.01
NCI-H322M,0.718,0.758,0.832,0.833,0.771,0.548,0.511,0.581,0.576,0.575,1.34,0.859,0.564,0.347,1.29,1.2,1.11,1.14,1.18
NCI-H441,0.966,1.02,0.836,0.844,0.729,0.677,0.511,0.665,0.6,0.481,0.413,0.378,0.435,0.358,0.396,0.309,0.378,0.67,0.929
NCI-H460,0.534,0.973,0.788,0.575,0.467,0.643,1.24,1.14,0.913,0.521,0.677,0.353,0.0854,0.0632,0.908,1.08,1.06,1.28,1.17
NCI-H520,0.673,0.629,0.519,0.581,0.561,0.301,0.303,0.287,0.251,0.349,0.446,0.477,0.252,0.138,0.471,0.309,0.495,0.565,0.446
NCI-H596,0.776,0.808,0.725,0.921,0.77,0.823,0.729,0.871,0.764,0.607,0.867,1.09,0.709,0.79,1.18,0.933,0.882,0.941,1.09
NCI-H647,0.631,0.621,0.84,0.686,0.501,0.647,0.864,0.755,0.918,0.707,0.76,0.462,0.227,0.103,0.874,0.819,1.04,0.934,0.871
NCI-H650,0.479,0.37,0.509,0.425,0.475,0.496,0.467,0.643,0.494,0.565,0.689,0.507,0.262,0.385,0.858,0.745,0.737,0.794,0.886
NCI-H661,0.288,0.281,0.324,0.281,0.267,0.721,0.808,0.724,0.694,0.68,0.701,0.609,0.354,0.285,0.764,0.685,0.647,0.907,0.858
NCI-H727,0.524,0.59,0.676,0.662,0.445,0.553,0.642,0.559,0.565,0.455,0.358,0.57,0.463,0.464,0.873,0.62,0.882,0.993,0.857
NCI-H838,0.682,0.626,0.745,0.654,0.682,0.431,0.264,0.355,0.417,0.38,0.986,0.588,0.583,0.149,0.794,0.721,0.87,0.79,0.706
NCI-H1355,0.49,0.446,0.475,0.472,0.438,0.408,0.378,0.486,0.428,0.442,1.02,1.12,0.561,0.265,1.25,1.12,1.14,1.21,1.15
NCI-H1437,0.359,0.267,0.311,0.352,0.306,0.986,0.855,0.865,0.943,0.862,0.399,0.355,0.285,0.171,0.469,0.444,0.512,0.489,0.419
NCI-H1563,0.607,0.653,0.706,0.668,0.61,0.772,0.778,0.819,0.75,0.786,0.598,0.891,0.871,0.477,0.951,0.823,0.857,0.833,0.838

# From the supplement of paper PMC10307832
